# Test results from US20160109438A1, “PROTEASE-RESPONSIVE PEPTIDE BIOSENSORS AND METHODS FOR ANALYTE DETECTION” (AGENCY FOR SCIENCE, TECHNOLOGY AND RESEARCH, priority 2013, published 2016).
# B1: mutant p53 peptide with critical residues mutated to alanine (ETASDLAKLAP) (peptide)
# peptide: ETASDLAKLAP
# notes: Synthetic negative control peptide; also called peptide C
# What was measured:
# [1] = target: HA antibody (clone not named, FIG. 3B and FIG. 8B); test: cell-based or functional assay
# Mdm2 = target: T1, Mdm2 (Homo sapiens, UniProt Q00987); test: Mdm2-enterokinase sensor assay; type: biochemical; conditions: for substrate turnover (time course): sensor with enterokinase and mdm2, compared with DMSO only
# T1 construct: derived from N-terminal domain (amino acids 18-125) of wild type Mdm2 protein; 10x His; made in house; host or cells: E. coli
# T1 sequence (Q00987 18-125, species assumed): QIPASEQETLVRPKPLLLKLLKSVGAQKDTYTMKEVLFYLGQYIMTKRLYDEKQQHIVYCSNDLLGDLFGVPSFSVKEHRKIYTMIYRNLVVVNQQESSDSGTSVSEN
# Experimental: Nutlin was used as the positive control and a mutant p53 peptide, which cannot bind to Mdm2 was used as the negative control. The reaction was monitored using absorbance measurements at OD492 on a Perkin Elmer plate reader every 2 min. The signal was calculated from reading 5 minus reading 3. This assay was repeated three times and the average gradient value with standard error was reported.
# The screening was divided into two steps. In the first step, the screening was carried out at the fixed compound concentration of […]. In the second step, a dose-response experiment of different hits found in the first step was conducted. […] The OD492 value of read number 3 was subtracted from that of read number 5 (OD492 readings were taken every 2 min) which was designated as signal. […] Fold change=Gradient of Hits (Reading 5−Reading 3)/Gradient of control (Reading 5−Reading 3)
# Mdm2 N-terminal domain = Mdm2 N-terminal domain (Homo sapiens, UniProt Q00987); test: Protease exclusion sensor using fluorescence labeled internally quenched peptide (P1); conditions: for response of the peptide sensor (rate of fluorescence increase): various concentrations, with enterokinase and Mdm2
# Chain of Mdm2 N-terminal domain (Q00987 18-125): as the sequence (Q00987 18-125, species assumed) above
# HA antibody / HA epitope = test: HA-enterokinase sensor assay; type: biochemical; conditions: 0 nM, 4 nM, 40 nM, 400 nM and 4000 nM; enterokinase and HA antibody present
# HA antibody = test: Thrombin-HA protease exclusion sensor; type: biochemical
# Description: An HA-antibody binds to the HA epitope ([…]; SEQ ID NO:3). The Binding of an anti-HA antibody to its epitope would disallow protease, access to its recognition site due to steric obstruction by the higher affinity HA antibody. Addition of excess HA peptide should sequester the HA antibody, leading to renewed protease access to its recognition site, bringing about increased enzyme activity in response to the HA peptide. […] Starting from the left, the rate of substrate turnover is shown after 0 nM, 4 nM, 40 nM, 400 nM and 4000 nM addition of free HA peptide to the tested sensor.
# [2] = target: T2, Mdm2 N-terminal domain (amino acids 18-125) of wild type Mdm2 protein engineered with 10x His tag (UniProt Q00987 18-125); test: Mdm2-enterokinase sensor assay, substrate turnover at OD492
# T2 construct: range 18-125; expressed in E. coli; also called Mdm2 N-terminus; Mdm2 N terminus
# T2 sequence (Q00987 18-125 limits assumed, change not shown): as the sequence (Q00987 18-125, species assumed) above
molecule,measurement,setting,value
free HA peptide,HA peptide concentration with the highest substrate turnover (thrombin-HA protease exclusion sensor),[1],400 nM
ETASDLAKLAP (mutated p53 peptide) [mutant p53 peptide],substrate turnover (time course),Mdm2,does not lead to increased turnover
same,response of the peptide sensor (rate of fluorescence increase),Mdm2 N-terminal domain,not
O=c1[nH]cc(F)c(=O)[nH]1 [5 FU],substrate turnover (time course),Mdm2,does not lead to increased turnover
Nutlin,substrate turnover (time course),Mdm2,substrate turnover increases substantially
same,rate of turnover of substrate in response to various amounts,Mdm2; various amounts of competitor,increased turnover signal
same,detectable concentrations,Mdm2 N-terminal domain; signal to noise ratio ~5-6x,low micromolar
same,response of the peptide sensor (rate of fluorescence increase),Mdm2 N-terminal domain,strong response
"HA peptide: free peptide of the influenza hemagglutinin (HA) epitope, sequesters the HA antibody",substrate turnover after addition of free HA peptide,HA antibody / HA epitope,concentration-dependent increase of substrate turnover
same,rate of substrate turnover,"HA antibody; thrombin and HA antibody, varying amounts of free peptide",increases with increasing amount
same,amount of peptide giving the highest substrate turnover,HA antibody; thrombin-HA protease exclusion sensor,400 nM
B1,binding result,[2],no binding
